Patent US6841566B2, “Viral polymerase inhibitors” (Boehringer Ingelheim, Ltd., priority 2001, dated 2005)

These compounds were tested on Huh7 cells that stably maintain a subgenomic HCV replicon (S22.3 cell-line) (assay: Cell based HCV RNA replication assay (S22.3 replicon cells, real-time RT-PCR)). Conditions: Hepatitis C virus, Huh-7, 72 hours.
Procedure: Huh7 cells that stably maintain a subgenomic HCV replicon were established as previously described (Lohman et al., 1999. Science 285: 110-113) and designated as the S22.3 cell-line. S22.3 cells were maintained in Dulbecco's Modified […] Medium (DMEM) supplemented with 10% FBS and 0.5 mg/mL neomycin (Standard Medium). During the assay, DMEM medium supplemented with 10% FBS, containing 0.5% DMSO and lacking neomycin was used (Assay Medium). 16 hours prior to compound addition, S22.3 cells are trypsinized and diluted to 100 000 cells/ml in Standard Medium. 100μL (10 000 cells) are distributed into each well of a 96-well plate. The plate was then incubated at 37° C. with 5% CO2 until the next day.
10 μL of test compound (in 100% DMSO) was added to 2 ml of Assay Medium for a final DMSO concentration of 0.5% and the solution was sonicated for 15 min and filtered through a […] Millipore Filter Unit. 900 μl was transferred into row A of a Polypropylene Deep-Well Titer Plate. Rows B to H, contain 400 μL aliquots of Assay Medium (containing 0.5% DMSO), and were used to prepare serial dilutions (1/2) by transferring 400 μl from row to row (no compound was included in row H).
Cell culture medium was aspirated from the 96-well plate containing the S22.3 cells. 175 μL of assay medium with the appropriate dilution of test compound was transferred from each well of the compound plate to the corresponding well of the cell culture plate (row H was used as the “No inhibition control”). The cell culture plate was incubated at 37° C. with 5% CO2 for 72 hours.
Following the 72 hour incubation period, the total cellular RNA was extracted from the S22.3 cells of the 96-well plate using the RNeasy 96 kit (Qiagen®, RNeasy Handbook. 1999.). Briefly, assay medium was completely removed from cells and 100 μL of RLT buffer (Qiagen®) containing 143 mM β-mercaptoethanol was added to each well of the 96-well cell-culture plate. The microplate was gently shaken for 20 sec. 100 μL of 70% ethanol was then added to each microplate well, and mixed by pipetting. The lysate was removed and applied to the wells of a RNeasy 96 (Qiagen®) plate that was placed on top of a Qiagen® Square-Well Block. The RNeasy 96 plate was sealed with tape and the Square-Well Block with the RNeasy 96 plate was loaded into the holder and placed in a rotor bucket of a 4K15C centrifuge. The sample was centrifuged at 6000 rpm (˜5600×g) for 4 min at room temperature. The tape was removed from the plate and 0.8 ml of Buffer RW1 (Qiagen® RNeasy 96 kit) was added to each well of the RNeasy 96 plate. The RNeasy 96 plate was sealed with a new piece of tape and centrifuged at 6000 rpm for 4 min at room temperature. The RNeasy 96 plate was placed on top of another clean Square-Well Block, the tape removed and 0.8 ml of Buffer RPE (Qiagen® RNeasy 96 kit) was added to each well of the RNeasy 96 plate. The RNeasy 96 plate was sealed with a new piece of tape and centrifuged at 6000 rpm for 4 min at room temperature. The tape was removed and another 0.8 ml of Buffer RPE (Qiagen® RNeasy 96 kit) was added to each well of the RNeasy 96 plate. The RNeasy 96 plate was sealed with a new piece of tape and centrifuged at 6000 rpm for 10 min at room temperature. Tape was removed, the RNeasy 96 plate was placed on top of a rack containing 1.2-mL collection microtubes. The RNA was eluted by adding 50 μL of RNase-free water to each well, sealing plate with a new piece of tape and incubated for 1 min at room temperature. The plate was then centrifuged at 6000 rpm for 4 min at room temperature. The elution step was repeated with a second volume of 50 μl RNase-free water. The microtubes with total cellular RNA are stored at −70° C.
RNA was quantified on the STORM® system (Molecular Dynamics®) using the RiboGreen® RNA Quantification Kit (Molecular Probes®). Briefly, the RiboGreen reagent was diluted 200-fold in TE (10 mM Tris-HCl pH=7.5, 1 mM EDTA). Generally, 50 μL of reagent was diluted in 10 mL TE. […]

`O=C(O)/C=C/c1ccc(NC(=O)C2(NC(=O)c3ccc4c(c3)nc(-c3ccccn3)n4C3CCCCC3)CCCC2)cc1` [compound 2005] and `O=C(O)/C=C/c1ccc(NC(=O)C2(NC(=O)c3ccc4c(c3)nc(-c3ccccn3)n4C3CCCC3)CCCC2)cc1` [compound 2012] cannot be ordered by EC50: no more than 5 µM for the first, 5 to 50 µM for the second.

`O=C(O)/C=C/c1ccc(NC(=O)C2(NC(=O)c3ccc4c(c3)nc(-c3ccccc3)n4C3CCCCC3)CCCC2)cc1` [compound 2006] and `Cn1cccc1-c1nc2cc(C(=O)NC3(C(=O)Nc4ccc(/C=C/C(=O)O)cc4)CCCC3)ccc2n1C1CCCCC1` [compound 2048] cannot be ordered by EC50: no more than 5 µM for the first, no more than 5 µM for the second.

`O=C(O)/C=C/c1ccc(NC(=O)C2(NC(=O)c3ccc4c(c3)nc(-c3ccc[nH]3)n4C3CCCCC3)CCCC2)cc1` [compound 2007] and `O=C(O)/C=C/c1ccc(NC(=O)C2(NC(=O)c3ccc4c(c3)nc(-c3ccco3)n4C3CCCCC3)CCCC2)cc1` [compound 2049] cannot be ordered by EC50: no more than 5 µM for the first, no more than 5 µM for the second.

`O=C(O)/C=C/c1ccc(NC(=O)C2(NC(=O)c3ccc4c(c3)nc(-c3ccoc3)n4C3CCCC3)CCCC2)cc1` [compound 2013] and `CC1CCCCC1n1c(-c2ccoc2)nc2cc(C(=O)NC3(C(=O)Nc4ccc(C=CC(=O)O)cc4)CCCC3)ccc21` (stereo not drawn) [compound 2045] cannot be ordered by EC50: 5 to 50 µM for the first, no more than 5 µM for the second.

In the case of `O=C(O)/C=C/c1ccc(NC(=O)C2(NC(=O)c3ccc4c(c3)nc(-c3cccs3)n4C3CCCCC3)CCCC2)cc1` [compound 2050], the EC50 is reported as no more than 5 µM.
